Each compound was assayed against ALPK1 (Homo sapiens (Human), UniProt Q96QP1) (assay: ALPK1 in vitro kinase assay (HTRF of TIFA phosphorylation)). Details: not given.
Type: biochemical
From the text: In embodiments, a compound of Formula I, or a subembodiment described herein, is an inhibitor of ALPK1 as measured, for example, in an in vitro kinase assay, or an assay designed to measure the activation of downstream targets of ALPK1 pathway activation, for example NFkB transcriptional activation and the secretion of proinflammatory cytokines and chemokines, such as IL-8, which is also referred to as CXCL-8. In general, the computer program XL fit was used for data analysis, including non-linear regression analysis. The half maximal inhibitory concentration (IC50) was used as the measure of a compound's effectiveness in the assays. IC50 values were determined using the following logistic equation Y=min+(max−min)/(1+(X/IC50^−hillslpoe), where Y is the value at the compound concentration, X. The concentration response curve fitting was conducted using GraphPad Prism version 6.00 software.
ALPK1 kinase activity was measured in an in vitro assay using ADP-Heptose as the ALPK1 ligand and activator of its kinase activity and TIFA protein as the ALPK1 phosphorylation substrate. Since phosphorylated TIFA proteins oligomerize, Homogeneous Time-Resolved Fluorescence (HTRF) was used to measure protein:protein interaction between HA-tagged TIFA proteins as an indicator of TIFA phosphorylation.
In brief, dose-response studies were performed with HEK293 cells cultured in Dulbecco's Modified Eagle Medium (DMEM) supplemented 10% fetal bovine serum (FBS, Hyclone™) containing antibiotics (pen/strep, G418) in 384-well assay plates. Each well contained 0.1 mg TIFA, ALPK1 (2 nM final concentration in reaction mixture) and kinase buffer (100 mM of HEPES pH 7.4, 4 mM DTT, 40 mM MgCl2, 20 mM of β-Glycerol phosphate disodium salt, 0.4 mM of Na3VO4, 0.16 mg/mL). Titrations of the test compounds were prepared in dimethylsulphoxide (DMSO). The reaction was initiated by addition of ATP and ADP-Heptose.
For HTRF, samples were incubated with a Tb cryptate-labeled anti-HA antibody for capturing HA-tagged proteins according to the manufacturer's instructions (PerkinElmer™, CisBio™) and the fluorescence signal was quantified (Tecan Infinite F NANO+). HTRF signals were calculated as the HTRF ratio (ratio of fluorescence measured at 665 nm and 620 nm)×104 (thereby using the signal at 620 nm as an internal standard).
IC50 values were determined using 3- or 4-parameter logistic equation using GraphPad Prism version 6.00. The reference compound, A027, was used as a positive control for each plate.

Sequence of ALPK1 (Q96QP1 whole entry): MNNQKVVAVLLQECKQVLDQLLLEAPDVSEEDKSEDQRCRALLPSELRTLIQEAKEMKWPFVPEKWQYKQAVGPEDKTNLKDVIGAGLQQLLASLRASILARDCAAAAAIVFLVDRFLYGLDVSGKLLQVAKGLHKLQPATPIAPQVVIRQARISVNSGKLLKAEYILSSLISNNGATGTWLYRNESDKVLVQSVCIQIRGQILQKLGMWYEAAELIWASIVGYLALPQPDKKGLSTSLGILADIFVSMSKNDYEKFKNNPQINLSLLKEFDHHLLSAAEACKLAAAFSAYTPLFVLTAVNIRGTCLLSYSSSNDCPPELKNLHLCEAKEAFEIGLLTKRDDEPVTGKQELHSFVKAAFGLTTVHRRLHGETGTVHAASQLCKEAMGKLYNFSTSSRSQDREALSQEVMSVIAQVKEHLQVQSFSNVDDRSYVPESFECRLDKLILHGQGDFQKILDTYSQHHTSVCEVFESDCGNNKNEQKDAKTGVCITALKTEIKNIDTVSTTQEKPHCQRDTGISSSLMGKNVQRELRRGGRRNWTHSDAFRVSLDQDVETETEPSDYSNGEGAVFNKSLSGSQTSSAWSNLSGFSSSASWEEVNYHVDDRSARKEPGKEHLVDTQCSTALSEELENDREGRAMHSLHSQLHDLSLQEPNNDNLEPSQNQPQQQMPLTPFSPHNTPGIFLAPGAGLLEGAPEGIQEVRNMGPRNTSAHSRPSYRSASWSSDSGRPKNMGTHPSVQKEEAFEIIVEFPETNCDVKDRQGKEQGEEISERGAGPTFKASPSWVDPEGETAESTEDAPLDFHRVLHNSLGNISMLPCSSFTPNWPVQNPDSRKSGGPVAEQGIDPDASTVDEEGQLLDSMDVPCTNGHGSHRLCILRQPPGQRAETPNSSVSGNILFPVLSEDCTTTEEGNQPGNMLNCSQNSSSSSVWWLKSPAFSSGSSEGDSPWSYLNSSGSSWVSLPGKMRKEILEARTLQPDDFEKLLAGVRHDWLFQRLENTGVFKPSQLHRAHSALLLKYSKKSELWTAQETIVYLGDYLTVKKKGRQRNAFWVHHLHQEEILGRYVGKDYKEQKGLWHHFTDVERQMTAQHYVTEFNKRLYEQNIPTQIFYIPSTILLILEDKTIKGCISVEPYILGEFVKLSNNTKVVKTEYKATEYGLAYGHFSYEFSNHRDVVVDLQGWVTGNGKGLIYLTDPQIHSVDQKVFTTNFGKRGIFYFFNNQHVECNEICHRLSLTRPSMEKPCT

Structure (SMILES) | IC50 [µM]
[2H]C([2H])(O)CNC(=O)Nc1nc([C@](C)(C#C)c2ccc(Cl)cc2)cs1 (single isomer, unassigned) [Example A320, 1-[4-[1-(4-chlorophenyl)-1-methyl-prop-2-ynyl]thiazol-2-yl]-3-(2,2-dideuterio-2-hydroxy-ethyl)urea] | 0.044
CC(C)(c1ccc(Br)cc1)c1csc(NC(=O)NCc2ccc(N3CCC(C(N)=O)CC3)cc2)n1 [Example A006, 1-(4-((3-(4-(2-(4-bromophenyl)propan-2-yl)thiazol-2-yl)ureido)methyl)phenyl) piperidine-4-carboxamide] | 0.104
CC1CNCCN1c1ccc(CNC(=O)Nc2nc(C(C)(C)c3ccc(Br)cc3)cs2)cc1 (stereo not drawn) [Example A029, 1-(4-(2-(4-bromophenyl)propan-2-yl)thiazol-2-yl)-3-(4-(2-methylpiperazin-1-yl)benzyl)urea] | 0.073
COc1ccc(C(C)(C)c2csc(NC(=O)NCc3cccc(N4CCNCC4)n3)n2)cc1 [Example A043, 1-(4-(2-(4-methoxyphenyl)propan-2-yl)thiazol-2-yl)-3-((6-(piperazin-1-yl)pyridin-2-yl)methyl)urea] | 0.165
CC(C)(c1ccc(Br)cn1)c1csc(NC(=O)NCc2ccc(N3CCNCC3)c(F)c2)n1 [Example A057, 1-(4-(2-(5-bromopyridin-2-yl)propan-2-yl)thiazol-2-yl)-3-(3-fluoro-4-(piperazin-1-yl)benzyl)urea] | 0.246
CCOc1ccc(C(C)(C)c2csc(NC(=O)NCc3ccc(N4CCNCC4)cc3)n2)cc1 [Example A059, 1-(4-(2-(4-ethoxyphenyl)propan-2-yl)thiazol-2-yl)-3-(4-(piperazin-1-yl)benzyl)urea] | 0.269
CC(C)(c1ccc(Cl)cc1)c1csc(NC(=O)NCc2cnc(N3CCC(N)C3)nc2)n1 (stereo not drawn) [Example A068, 1-((2-(3-aminopyrrolidin-1-yl)pyrimidin-5-yl)methyl)-3-(4-(2-(4-chlorophenyl)propan-2-yl)thiazol-2-yl)urea] | 0.269

Same assay, conditions: ALPK1 2 nM, TIFA substrate, ADP-Heptose activator, HTRF readout

Structure (SMILES) | IC50 [µM]
C#CC(C)(c1ccc(Br)cc1)c1csc(NC(=O)[C@H]2C[C@H](CO)C2)n1 (mixture of isomers) [Example D005, rac-(1r,3r)-N-(4-(2-(4-bromophenyl)but-3-yn-2-yl)thiazol-2-yl)-3-(hydroxymethyl)cyclobutanecarboxamide] | 0.098
C#CC(C)(c1ccc(Br)cc1)c1csc(NC(=O)[C@H]2C[C@@H](CO)C2)n1 (mixture of isomers) [Example D006, rac-(1s,3s)-N-(4-(2-(4-bromophenyl)but-3-yn-2-yl)thiazol-2-yl)-3-(hydroxymethyl)cyclobutanecarboxamide] | 0.04
C#C[C@@](C)(c1ccc(F)cc1)c1csc(NC(=O)c2ccc(N3CCNCC3CO)cc2)n1 (stereo in doubt) [Example B069, N-[4-[1-(4-fluorophenyl)-1-methyl-prop-2-ynyl]thiazol-2-yl]-4-[2-(hydroxymethyl)piperazin-1-yl]benzamide] | 0.02
C#C[C@](C)(c1ccc(F)cc1)c1csc(NC(=O)c2ccc(N3CCNCC3CO)cc2)n1 (stereo in doubt) [Example B070, N-[4-[1-(4-fluorophenyl)-1-methyl-prop-2-ynyl]thiazol-2-yl]-4-[2-(hydroxymethyl)piperazin-1-yl]benzamide] | 0.169
C#C[C@@](C)(c1ccc(F)cc1)c1csc(NC(=O)c2ccc(N3CCNCC3CO)cc2)n1 (stereo in doubt) [Example B071, N-[4-[1-(4-fluorophenyl)-1-methyl-prop-2-ynyl]thiazol-2-yl]-4-[2-(hydroxymethyl)piperazin-1-yl]benzamide] | 0.06
C#C[C@](C)(c1ccc(F)cc1)c1csc(NC(=O)c2ccc(N3CCNCC3CO)cc2)n1 (stereo in doubt) [Example B072, N-[4-[1-(4-fluorophenyl)-1-methyl-prop-2-ynyl]thiazol-2-yl]-4-[2-(hydroxymethyl)piperazin-1-yl]benzamide] | 0.26
C#C[C@@](C)(c1ccc(Cl)cc1)c1csc(NC(=O)c2ccc(N3CCNC(CO)C3)cc2)n1 (stereo in doubt) [Example B077, N-(4-(2-(4-chlorophenyl)but-3-yn-2-yl)thiazol-2-yl)-4-(3-(hydroxymethyl)piperazin-1-yl)benzamide] | 0.09
C#C[C@](C)(c1ccc(Cl)cc1)c1csc(NC(=O)c2c(F)cc(N3CCC(N)C3)cc2F)n1 (stereo in doubt) [Example B085, 4-(3-aminopyrrolidin-1-yl)-N-(4-(2-(4-chlorophenyl)but-3-yn-2-yl)thiazol-2-yl)-2,6-difluorobenzamide] | 0.395
C#C[C@@](C)(c1ccc(Cl)cc1)c1csc(NC(=O)c2c(F)cc(N3CCC(N)C3)cc2F)n1 (stereo in doubt) [Example B087, 4-(3-aminopyrrolidin-1-yl)-N-(4-(2-(4-chlorophenyl)but-3-yn-2-yl)thiazol-2-yl)-2,6-difluorobenzamide] | 0.038
C#C[C@@](C)(c1ccc(Cl)cc1)c1csc(NC(=O)c2c(F)cc(N3CCC(N)C3)cc2F)n1 (stereo in doubt) [Example B088, 4-(3-aminopyrrolidin-1-yl)-N-(4-(2-(4-chlorophenyl)but-3-yn-2-yl)thiazol-2-yl)-2,6-difluorobenzamide] | 0.042
C#C[C@](C)(c1ccc(F)cc1)c1csc(NC(=O)c2c(F)cc(N3CCC(N)C3)cc2F)n1 (stereo in doubt) [Example B089, 4-(3-aminopyrrolidin-1-yl)-2,6-difluoro-N-(4-(2-(4-fluorophenyl)but-3-yn-2-yl)thiazol-2-yl)benzamide] | 0.681
C#C[C@@](C)(c1ccc(F)cc1)c1csc(NC(=O)c2c(F)cc(N3CCC(N)C3)cc2F)n1 (stereo in doubt) [Example B090, 4-(3-aminopyrrolidin-1-yl)-2,6-difluoro-N-(4-(2-(4-fluorophenyl)but-3-yn-2-yl)thiazol-2-yl)benzamide] | 0.107
C#C[C@@](C)(c1ccc(F)cc1)c1csc(NC(=O)c2c(F)cc(N3CCC(N)C3)cc2F)n1 (stereo in doubt) [Example B091, 4-(3-aminopyrrolidin-1-yl)-2,6-difluoro-N-(4-(2-(4-fluorophenyl)but-3-yn-2-yl)thiazol-2-yl)benzamide] | 0.065
C#C[C@@](C)(c1ccc(Cl)cc1)c1csc(NC(=O)c2c(F)cc(N3CCNCC3CO)cc2F)n1 (stereo in doubt) [Example B097, N-[4-[1-(4-chlorophenyl)-1-methyl-prop-2-ynyl]thiazol-2-yl]-2,6-difluoro-4-[2-(hydroxymethyl)piperazin-1-yl]benzamide] | 0.119
C#C[C@](C)(c1ccc(Cl)cc1)c1csc(NC(=O)c2c(F)cc(N3CCNCC3CO)cc2F)n1 (stereo in doubt) [Example B098, N-[4-[1-(4-chlorophenyl)-1-methyl-prop-2-ynyl]thiazol-2-yl]-2,6-difluoro-4-[2-(hydroxymethyl)piperazin-1-yl]benzamide] | 0.02
C#C[C@@](C)(c1ccc(OC)cc1)c1csc(NC(=O)c2c(F)cc(N3CCNCC3)cc2F)n1 (stereo in doubt) [Example C036, 2,6-difluoro-N-[4-[1-(4-methoxyphenyl)-1-methyl-prop-2-ynyl]thiazol-2-yl]-4-piperazin-1-yl-benzamide] | 0.067
C#C[C@@](C)(c1csc(NC(=O)c2c(F)cc(N3CCNCC3)cc2F)n1)c1ccc(Cl)cc1F (stereo in doubt) [Example C043, N-(4-(2-(4-chloro-2-fluorophenyl)but-3-yn-2-yl)thiazol-2-yl)-2,6-difluoro-4-(piperazin-1-yl)benzamide] | 0.285
C#C[C@](C)(c1csc(NC(=O)c2c(F)cc(N3CCNCC3)cc2F)n1)c1ccc(Cl)cc1F (stereo in doubt) [Example C044, N-(4-(2-(4-chloro-2-fluorophenyl)but-3-yn-2-yl)thiazol-2-yl)-2,6-difluoro-4-(piperazin-1-yl)benzamide] | 0.025
C#C[C@](C)(c1ccc(Cl)cc1)c1nc(NC(=O)c2c(F)cc(N3CCNCC3)cc2F)sc1Cl (stereo in doubt) [Example C049, N-(5-chloro-4-(2-(4-chlorophenyl)but-3-yn-2-yl)thiazol-2-yl)-2,6-difluoro-4-(piperazin-1-yl)benzamide] | 4.52
C#C[C@@](C)(c1ccc(Cl)cc1)c1nc(NC(=O)c2c(F)cc(N3CCNCC3)cc2F)sc1Cl (stereo in doubt) [Example C050, N-(5-chloro-4-(2-(4-chlorophenyl)but-3-yn-2-yl)thiazol-2-yl)-2,6-difluoro-4-(piperazin-1-yl)benzamide] | 0.923
